Test results taken from paper PMC9329436, “Optimization of the 4-anilinoquin(az)oline scaffold as epidermal growth factor receptor (EGFR) inhibitors for chordoma utilizing a toxicology profiling assay platform” (Scientific Reports, 2022).
Like-named read-outs stand apart in the source and are kept apart here.

Experiments:
[1] = biological target: VEGFR2 (Homo sapiens, UniProt P35968); assay: 33PanQinase activity assay; format: biochemical; conditions: 10 μM
Source text: (§1) Table S4. Profiling of two compounds at two concentrations against 320 wild-type protein kinases; singlicate measurement; Residual activities (% of control).

[2] = system: CH22 patient-derived chordoma cell line; assay: Cell viability assay (alamarBlue, 72 h), CH22; format: cell-based, human; conditions: n = 4, 72 h
How it was run: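 Patient-derived chordoma lines and WS1 fibroblasts seeded in 384-well plates, dosed in quadruplicate 24 h after plating.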

[3] = biological target: 320 wild-type protein kinases (Homo sapiens, UniProt P49841); format: biochemical; conditions: GSK3-beta, singlicate
Source text: as §1

[4] = biological target: 320 wild-type protein kinases (Homo sapiens, UniProt Q04912); format: biochemical; conditions: kinase RON, singlicate
Source text: as §1

[5] = biological target: T1, 320 wild-type protein kinases (Homo sapiens, UniProt O60285); format: biochemical; conditions: singlicate
T1 sequence (O60285 1-661): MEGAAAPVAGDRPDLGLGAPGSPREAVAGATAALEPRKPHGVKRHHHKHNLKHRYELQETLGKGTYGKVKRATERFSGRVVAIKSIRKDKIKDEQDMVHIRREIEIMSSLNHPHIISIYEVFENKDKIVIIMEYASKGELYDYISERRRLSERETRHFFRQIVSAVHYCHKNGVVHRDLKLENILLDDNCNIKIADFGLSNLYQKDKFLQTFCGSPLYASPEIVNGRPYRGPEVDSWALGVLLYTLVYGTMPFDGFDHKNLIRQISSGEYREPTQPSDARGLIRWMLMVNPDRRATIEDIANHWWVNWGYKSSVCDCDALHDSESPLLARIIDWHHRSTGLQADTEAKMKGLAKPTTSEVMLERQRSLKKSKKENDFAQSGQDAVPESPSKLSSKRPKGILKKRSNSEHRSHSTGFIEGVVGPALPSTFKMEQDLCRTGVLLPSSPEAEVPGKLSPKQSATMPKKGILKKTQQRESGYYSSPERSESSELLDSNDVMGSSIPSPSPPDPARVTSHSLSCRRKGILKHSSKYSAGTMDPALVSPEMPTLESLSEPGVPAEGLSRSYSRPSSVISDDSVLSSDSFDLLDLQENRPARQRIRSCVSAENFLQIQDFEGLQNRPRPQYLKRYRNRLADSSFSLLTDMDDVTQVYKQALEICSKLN
Source text: as §1

[6] = biological target: 320 wild-type protein kinases (Homo sapiens, UniProt P51812); format: biochemical; conditions: kinase RPS6KA3, singlicate
Source text: as §1

[7] = biological target: 320 wild-type protein kinases (Homo sapiens, UniProt Q15349); format: biochemical; conditions: kinase RPS6KA2, singlicate
Source text: as §1

[8] = biological target: 320 wild-type protein kinases (Homo sapiens, UniProt P49840); format: biochemical; conditions: GSK3-alpha, singlicate
Source text: as §1

[9] = biological target: 320 wild-type protein kinases (Homo sapiens, UniProt P45983); format: biochemical; conditions: singlicate
Source text: as §1

[10] = biological target: 320 wild-type protein kinases (Homo sapiens, UniProt Q13233); format: biochemical; conditions: singlicate
Source text: as §1

[11] = biological target: 320 wild-type protein kinases (Homo sapiens, UniProt O75676); format: biochemical; conditions: kinase RPS6KA4, singlicate
Source text: as §1

[12] = biological target: T2, 320 wild-type protein kinases (Homo sapiens, UniProt Q9UHD2); format: biochemical; conditions: kinase TBK1, singlicate
T2 sequence (Q9UHD2 1-729): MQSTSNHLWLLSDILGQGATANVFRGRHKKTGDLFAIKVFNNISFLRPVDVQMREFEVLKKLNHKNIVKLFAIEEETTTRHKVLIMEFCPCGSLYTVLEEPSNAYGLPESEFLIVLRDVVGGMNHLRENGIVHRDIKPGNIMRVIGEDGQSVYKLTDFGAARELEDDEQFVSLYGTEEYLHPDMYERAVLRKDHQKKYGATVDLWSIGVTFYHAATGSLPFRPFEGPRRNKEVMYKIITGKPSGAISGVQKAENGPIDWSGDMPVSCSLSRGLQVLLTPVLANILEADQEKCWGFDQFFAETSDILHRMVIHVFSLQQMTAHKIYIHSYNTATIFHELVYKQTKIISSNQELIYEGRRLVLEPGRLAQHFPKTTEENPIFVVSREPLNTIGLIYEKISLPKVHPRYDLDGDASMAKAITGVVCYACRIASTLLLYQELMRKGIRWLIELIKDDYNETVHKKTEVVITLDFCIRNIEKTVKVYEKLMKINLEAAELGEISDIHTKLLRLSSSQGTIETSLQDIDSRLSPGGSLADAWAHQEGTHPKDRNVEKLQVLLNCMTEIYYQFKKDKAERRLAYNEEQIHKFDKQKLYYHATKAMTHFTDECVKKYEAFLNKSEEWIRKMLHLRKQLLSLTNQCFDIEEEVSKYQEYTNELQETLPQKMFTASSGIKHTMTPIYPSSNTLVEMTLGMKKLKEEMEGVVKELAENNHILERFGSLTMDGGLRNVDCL
Source text: as §1

[13] = biological target: 320 wild-type protein kinases (Homo sapiens, UniProt P36894); format: biochemical; conditions: BMPR1A, singlicate
Source text: as §1

[14] = biological target: 320 wild-type protein kinases (Homo sapiens, UniProt Q05655); format: biochemical; conditions: PKC-delta, singlicate
Source text: as §1

Chain of 320 wild-type protein kinases (Homo sapiens, UniProt P49840) (P49840 whole entry): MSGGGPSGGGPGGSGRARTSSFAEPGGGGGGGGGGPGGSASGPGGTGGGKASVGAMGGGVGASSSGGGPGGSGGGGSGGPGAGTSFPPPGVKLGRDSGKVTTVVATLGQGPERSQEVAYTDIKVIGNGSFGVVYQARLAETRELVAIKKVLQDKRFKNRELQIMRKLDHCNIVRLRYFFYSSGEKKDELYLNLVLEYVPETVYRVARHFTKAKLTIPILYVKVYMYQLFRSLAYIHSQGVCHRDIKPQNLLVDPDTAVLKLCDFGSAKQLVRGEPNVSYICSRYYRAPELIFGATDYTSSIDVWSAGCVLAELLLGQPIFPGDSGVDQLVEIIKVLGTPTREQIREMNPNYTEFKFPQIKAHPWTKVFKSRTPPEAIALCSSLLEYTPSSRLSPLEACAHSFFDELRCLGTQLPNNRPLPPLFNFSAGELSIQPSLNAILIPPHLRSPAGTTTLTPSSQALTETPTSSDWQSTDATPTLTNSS
Chain of 320 wild-type protein kinases (Homo sapiens, UniProt P51812) (P51812 whole entry): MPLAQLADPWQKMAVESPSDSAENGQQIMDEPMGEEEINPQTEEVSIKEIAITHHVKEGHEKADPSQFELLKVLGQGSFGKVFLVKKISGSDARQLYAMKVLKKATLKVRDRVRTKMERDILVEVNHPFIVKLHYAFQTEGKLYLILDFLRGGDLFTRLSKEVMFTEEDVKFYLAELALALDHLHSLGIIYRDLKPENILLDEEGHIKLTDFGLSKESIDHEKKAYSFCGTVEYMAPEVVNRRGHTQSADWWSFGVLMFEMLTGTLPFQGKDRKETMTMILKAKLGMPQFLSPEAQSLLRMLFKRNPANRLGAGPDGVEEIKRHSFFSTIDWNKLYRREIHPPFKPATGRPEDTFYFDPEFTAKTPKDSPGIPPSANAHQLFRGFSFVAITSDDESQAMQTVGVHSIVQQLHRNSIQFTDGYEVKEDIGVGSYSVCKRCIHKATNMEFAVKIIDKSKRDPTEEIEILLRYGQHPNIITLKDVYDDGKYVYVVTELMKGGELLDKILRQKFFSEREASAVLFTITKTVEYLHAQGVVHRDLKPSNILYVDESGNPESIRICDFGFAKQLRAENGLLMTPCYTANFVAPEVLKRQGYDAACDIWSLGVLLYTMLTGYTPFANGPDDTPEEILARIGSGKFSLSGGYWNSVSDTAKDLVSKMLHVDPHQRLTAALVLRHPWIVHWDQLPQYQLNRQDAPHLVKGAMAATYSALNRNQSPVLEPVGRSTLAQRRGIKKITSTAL
Chain of 320 wild-type protein kinases (Homo sapiens, UniProt Q15349) (Q15349 whole entry): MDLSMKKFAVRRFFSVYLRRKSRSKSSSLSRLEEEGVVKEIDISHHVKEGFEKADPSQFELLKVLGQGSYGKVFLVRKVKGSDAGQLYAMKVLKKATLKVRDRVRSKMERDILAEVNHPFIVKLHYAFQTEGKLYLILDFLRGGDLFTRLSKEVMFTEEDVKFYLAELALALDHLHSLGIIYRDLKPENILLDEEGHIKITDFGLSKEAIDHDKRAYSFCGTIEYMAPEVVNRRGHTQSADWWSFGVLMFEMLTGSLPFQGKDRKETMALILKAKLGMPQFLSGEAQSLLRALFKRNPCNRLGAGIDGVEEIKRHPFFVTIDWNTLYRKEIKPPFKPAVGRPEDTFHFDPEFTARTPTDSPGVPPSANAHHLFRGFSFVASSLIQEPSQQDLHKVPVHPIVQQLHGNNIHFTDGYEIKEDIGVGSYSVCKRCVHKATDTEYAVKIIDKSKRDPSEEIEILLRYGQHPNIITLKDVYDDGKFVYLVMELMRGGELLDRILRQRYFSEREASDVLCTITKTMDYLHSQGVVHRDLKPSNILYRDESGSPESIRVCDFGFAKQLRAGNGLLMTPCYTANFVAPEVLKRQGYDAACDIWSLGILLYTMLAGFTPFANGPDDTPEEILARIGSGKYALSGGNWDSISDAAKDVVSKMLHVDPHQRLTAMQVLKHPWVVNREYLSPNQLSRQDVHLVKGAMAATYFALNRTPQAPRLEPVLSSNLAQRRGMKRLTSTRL
Chain of 320 wild-type protein kinases (Homo sapiens, UniProt P49841) (P49841 whole entry): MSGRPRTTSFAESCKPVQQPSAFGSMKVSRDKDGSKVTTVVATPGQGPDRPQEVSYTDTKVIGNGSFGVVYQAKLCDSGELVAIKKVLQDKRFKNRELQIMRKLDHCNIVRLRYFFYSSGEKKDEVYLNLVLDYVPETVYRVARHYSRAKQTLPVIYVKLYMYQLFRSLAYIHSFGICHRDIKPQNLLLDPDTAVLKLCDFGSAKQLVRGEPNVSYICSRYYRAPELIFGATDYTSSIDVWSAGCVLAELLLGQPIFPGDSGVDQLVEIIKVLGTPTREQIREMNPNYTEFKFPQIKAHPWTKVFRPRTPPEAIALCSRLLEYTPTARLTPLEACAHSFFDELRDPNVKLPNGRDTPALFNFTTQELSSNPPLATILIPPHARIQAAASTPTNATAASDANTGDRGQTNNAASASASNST
Chain of 320 wild-type protein kinases (Homo sapiens, UniProt Q05655) (Q05655 whole entry): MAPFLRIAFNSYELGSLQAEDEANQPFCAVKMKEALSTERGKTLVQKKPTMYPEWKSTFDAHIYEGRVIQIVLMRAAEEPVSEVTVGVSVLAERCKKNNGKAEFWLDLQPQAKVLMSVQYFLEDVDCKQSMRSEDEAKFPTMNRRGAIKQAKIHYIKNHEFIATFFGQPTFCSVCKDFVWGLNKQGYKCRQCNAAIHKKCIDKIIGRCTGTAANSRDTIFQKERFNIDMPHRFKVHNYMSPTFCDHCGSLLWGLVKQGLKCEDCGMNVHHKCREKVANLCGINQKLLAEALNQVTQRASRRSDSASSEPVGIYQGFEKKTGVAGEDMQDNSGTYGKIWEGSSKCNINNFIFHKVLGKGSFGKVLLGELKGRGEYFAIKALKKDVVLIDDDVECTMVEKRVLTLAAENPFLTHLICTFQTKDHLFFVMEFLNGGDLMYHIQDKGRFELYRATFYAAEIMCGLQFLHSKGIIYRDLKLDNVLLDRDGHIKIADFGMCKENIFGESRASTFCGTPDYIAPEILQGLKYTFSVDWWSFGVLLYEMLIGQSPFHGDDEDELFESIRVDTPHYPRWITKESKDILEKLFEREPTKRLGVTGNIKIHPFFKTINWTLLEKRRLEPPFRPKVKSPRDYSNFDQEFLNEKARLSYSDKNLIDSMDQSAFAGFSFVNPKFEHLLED
Chain of 320 wild-type protein kinases (Homo sapiens, UniProt Q13233) (Q13233 whole entry): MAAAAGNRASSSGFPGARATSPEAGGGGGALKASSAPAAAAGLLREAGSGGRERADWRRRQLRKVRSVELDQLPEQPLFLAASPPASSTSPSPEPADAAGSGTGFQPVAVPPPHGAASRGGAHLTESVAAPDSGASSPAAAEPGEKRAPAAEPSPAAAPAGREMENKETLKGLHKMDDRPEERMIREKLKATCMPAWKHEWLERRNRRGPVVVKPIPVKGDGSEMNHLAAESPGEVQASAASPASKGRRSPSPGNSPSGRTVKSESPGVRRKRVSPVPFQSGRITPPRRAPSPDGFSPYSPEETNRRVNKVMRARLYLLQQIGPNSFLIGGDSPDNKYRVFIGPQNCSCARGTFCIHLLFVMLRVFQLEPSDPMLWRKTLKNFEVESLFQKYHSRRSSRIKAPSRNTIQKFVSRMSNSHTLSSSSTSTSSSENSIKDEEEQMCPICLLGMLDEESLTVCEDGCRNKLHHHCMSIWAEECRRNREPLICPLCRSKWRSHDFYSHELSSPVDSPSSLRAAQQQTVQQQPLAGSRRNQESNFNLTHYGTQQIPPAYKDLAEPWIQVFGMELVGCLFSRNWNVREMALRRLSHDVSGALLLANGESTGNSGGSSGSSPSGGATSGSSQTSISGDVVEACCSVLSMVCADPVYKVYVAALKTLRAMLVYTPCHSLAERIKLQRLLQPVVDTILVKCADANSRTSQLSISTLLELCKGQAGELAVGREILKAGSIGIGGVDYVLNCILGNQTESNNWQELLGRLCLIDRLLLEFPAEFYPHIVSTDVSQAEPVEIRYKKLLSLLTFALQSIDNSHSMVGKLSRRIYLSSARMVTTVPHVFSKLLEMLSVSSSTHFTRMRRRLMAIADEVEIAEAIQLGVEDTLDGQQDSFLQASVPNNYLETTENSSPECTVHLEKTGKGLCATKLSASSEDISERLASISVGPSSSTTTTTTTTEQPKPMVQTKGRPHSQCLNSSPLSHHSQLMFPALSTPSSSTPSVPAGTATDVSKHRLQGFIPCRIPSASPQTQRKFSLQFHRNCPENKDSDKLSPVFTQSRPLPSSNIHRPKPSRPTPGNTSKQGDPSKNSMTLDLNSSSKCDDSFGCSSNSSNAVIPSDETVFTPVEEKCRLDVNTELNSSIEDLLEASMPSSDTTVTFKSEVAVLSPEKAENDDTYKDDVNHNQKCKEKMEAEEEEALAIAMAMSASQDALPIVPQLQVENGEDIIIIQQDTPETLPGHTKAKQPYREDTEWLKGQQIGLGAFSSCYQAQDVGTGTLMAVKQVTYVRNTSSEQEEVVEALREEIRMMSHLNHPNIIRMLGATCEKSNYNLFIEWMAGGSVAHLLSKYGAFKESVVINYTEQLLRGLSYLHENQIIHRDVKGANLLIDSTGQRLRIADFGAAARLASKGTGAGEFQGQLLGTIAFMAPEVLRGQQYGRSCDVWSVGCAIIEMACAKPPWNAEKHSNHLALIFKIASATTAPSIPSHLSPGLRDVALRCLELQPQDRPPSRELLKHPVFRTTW
Chain of 320 wild-type protein kinases (Homo sapiens, UniProt P36894) (P36894 24-532): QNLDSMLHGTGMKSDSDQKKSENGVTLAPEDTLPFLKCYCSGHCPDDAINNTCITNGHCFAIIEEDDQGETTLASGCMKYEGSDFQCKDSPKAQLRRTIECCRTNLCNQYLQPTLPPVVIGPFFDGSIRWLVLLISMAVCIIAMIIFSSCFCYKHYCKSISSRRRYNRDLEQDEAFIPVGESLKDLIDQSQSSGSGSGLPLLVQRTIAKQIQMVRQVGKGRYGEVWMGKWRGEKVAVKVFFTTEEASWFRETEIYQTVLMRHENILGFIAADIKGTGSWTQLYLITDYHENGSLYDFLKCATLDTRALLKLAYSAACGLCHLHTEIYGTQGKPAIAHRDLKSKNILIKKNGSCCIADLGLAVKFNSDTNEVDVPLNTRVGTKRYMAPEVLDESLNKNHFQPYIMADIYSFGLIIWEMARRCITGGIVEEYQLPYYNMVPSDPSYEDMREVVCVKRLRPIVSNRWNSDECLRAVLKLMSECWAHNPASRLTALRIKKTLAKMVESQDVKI

SMILES | IC50 [2] | Residual activity ([3]; 1.0E-06 M) | Residual activity ([3]; 1.0E-07 M) | Residual activity, RON ([4]; assay conc. 1.0E-06 M) | Residual activity, RON ([4]; assay conc. 1.0E-07 M) | Residual activity ([5]; ARK5, 1.0E-06 M) | Residual activity ([5]; ARK5, 1.0E-07 M) | Residual activity, RPS6KA3 ([6]; assay conc. 1.0E-06 M) | Residual activity, RPS6KA3 ([6]; assay conc. 1.0E-07 M) | Residual activity, RPS6KA2 ([7]; assay conc. 1.0E-06 M) | Residual activity, RPS6KA2 ([7]; assay conc. 1.0E-07 M) | Residual activity ([8]; 1.0E-06 M) | Residual activity ([8]; 1.0E-07 M) | Residual activity ([9]; JNK1, 1.0E-06 M) | Residual activity ([9]; JNK1, 1.0E-07 M) | Residual activity ([10]; MAP3K1, 1.0E-06 M) | Residual activity ([10]; MAP3K1, 1.0E-07 M) | Residual activity, RPS6KA4 ([11]; assay conc. 1.0E-06 M) | Residual activity, RPS6KA4 ([11]; assay conc. 1.0E-07 M) | Residual activity, TBK1 ([12]; assay conc. 1.0E-06 M) | other results
C#Cc1cc(Nc2ncnc3cc(OC)c(OC)cc23)ccc1Cl [Compound 45] | 1200 nM | 85 % of control | 84 % of control | 82 % of control | 90 % of control | 114 % of control | 104 % of control | 115 % of control | 119 % of control | 86 % of control | 100 % of control | 122 % of control | 136 % of control | 94 % of control | 113 % of control | 96 % of control | 96 % of control | 83 % of control | 95 % of control | 89 % of control | VEGFR2 inhibition [1]: > 50%; Residual activity, TBK1 ([12]; assay conc. 1.0E-07 M): 106 % of control; Residual activity ([13]; 1.0E-06 M): 110 % of control; Residual activity ([13]; 1.0E-07 M): 102 % of control; Residual activity ([14]; 1.0E-06 M): 89 % of control; Residual activity ([14]; 1.0E-07 M): 115 % of control
C#Cc1cc(Nc2ncnc3cc(I)ccc23)ccc1Cl [Compound 41] | 480 nM | 84 % of control | 96 % of control | 63 % of control | 77 % of control | 108 % of control | 110 % of control | 96 % of control | 99 % of control | 94 % of control | 97 % of control | 143 % of control | 148 % of control | 91 % of control | 90 % of control | 93 % of control | 96 % of control | 93 % of control | 95 % of control | 98 % of control | Residual activity, TBK1 ([12]; assay conc. 1.0E-07 M): 106 % of control; Residual activity ([13]; 1.0E-06 M): 96 % of control; Residual activity ([13]; 1.0E-07 M): 109 % of control; Residual activity ([14]; 1.0E-06 M): 88 % of control; Residual activity ([14]; 1.0E-07 M): 92 % of control
